From paper PMC5406018, “TCR stimulation strength is inversely associated with establishment of functional brain-resident memory CD8 T cells during persistent viral infection” (PLoS Pathogens, 2017)
No end group written: not given here.

Biological target: T1, MHC-I D^b (Mus musculus, UniProt P01899)
T1 construct: endogenous in cells; host or cells: RMA/S cells
T1 sequence (P01899 25-362): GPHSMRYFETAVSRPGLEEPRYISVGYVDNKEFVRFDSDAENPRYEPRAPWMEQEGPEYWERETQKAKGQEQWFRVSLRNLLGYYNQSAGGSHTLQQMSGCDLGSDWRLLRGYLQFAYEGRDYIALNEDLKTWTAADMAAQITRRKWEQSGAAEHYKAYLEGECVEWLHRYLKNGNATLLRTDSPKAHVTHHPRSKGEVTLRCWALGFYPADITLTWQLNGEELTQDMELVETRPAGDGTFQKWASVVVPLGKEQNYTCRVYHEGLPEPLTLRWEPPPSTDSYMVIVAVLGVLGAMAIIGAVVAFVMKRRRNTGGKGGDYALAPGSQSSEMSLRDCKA
T1 sequence (P01887 21-119 partner): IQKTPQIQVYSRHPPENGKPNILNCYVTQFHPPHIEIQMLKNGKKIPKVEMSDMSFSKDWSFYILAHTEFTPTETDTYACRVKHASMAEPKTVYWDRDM
Experiment: RMA/S MHC-I stabilization assay
Details: RMA/S cells cultured overnight at 26°C, peptide 1 h at RT then 2 h at 37°C; anti-D^b gMFI, percent of maximum; unit inferred; read-out: MHC-I D^b EC50 (MHC-I binding and stabilization)
Procedure: Fig 1 Characterizing the T cell response to analogues of a subdominant CD8 T cell epitope. (A) RMA/S cells were cultured overnight at 26°C. Cells were incubated with the indicated dose of peptide for 1 h at RT followed by incubation at 37C for 2 h. […] (B) RMA/S cells were cultured overnight at […] in 100 μM of peptide. Cells were then resuspended in fresh media, incubated at 37C, and sampled hourly for 4 h. […] Nuclear Nur77 (C) and intracellular IFNγ expression (D) shown. […] All data plotted as percent of maximal expression ± SD. […]
For MHC-I stabilization assays, RMA/S cells were cultured overnight at 26°C, resuspended in RPMI containing 10% FBS (10% RPMI) and peptides of different concentrations, then incubated for 1 h at room temperature followed by 2 h at 37°C. […] Each hour for 4 h an aliquot of cells was stained for 30 mins at 4°C with phycoerythrin-conjugated anti-D^b (clone 28-14-8; eBioscience), acquired on a BD FACSCanto10 instrument, and the geometric mean fluorescence intensity (gMFI) determined using FlowJo Software (Tree Star). The percent maximum gMFI was calculated as (gMFI^peptide-gMFI^no peptide)/(gMFI^max- gMFI^no peptide) x 100. EC50 and T1/2 were calculated using Prism software (GraphPad, La Jolla CA).

Sequence	EC50 [nM]
MGVANLDNL [LT638]	259
QGINNLDNL [TagV]	175
